# Measurements from patent publication US8173668B1 (Alcon Research, Ltd., priority 2007, dated 2012).
# Where two headings read alike, the source gives them in different places.
# T1: B2-receptors in h-TM cells (Homo sapiens, UniProt P30411)
# T1 construct: B2-receptor proteins in h-TM, h-CM and h-NPE cells; endogenous in cells; host or cells: human trabecular meshwork (h-TM), human ciliary muscle (h-CM) and human non-pigmented ciliary epithelial (h-NPE) cells
# T1 sequence (P30411 1-391): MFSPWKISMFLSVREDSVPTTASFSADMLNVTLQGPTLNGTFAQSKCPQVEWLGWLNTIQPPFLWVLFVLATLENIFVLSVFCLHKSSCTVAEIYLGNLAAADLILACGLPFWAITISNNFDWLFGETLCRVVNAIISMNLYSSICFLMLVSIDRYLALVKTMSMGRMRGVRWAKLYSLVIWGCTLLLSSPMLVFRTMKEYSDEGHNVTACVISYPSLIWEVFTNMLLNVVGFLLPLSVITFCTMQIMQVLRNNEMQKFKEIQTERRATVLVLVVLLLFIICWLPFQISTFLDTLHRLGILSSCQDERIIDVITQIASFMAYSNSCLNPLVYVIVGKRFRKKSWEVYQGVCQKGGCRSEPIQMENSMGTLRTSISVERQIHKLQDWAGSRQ
# T2: B2-receptors in h-CM cells (Homo sapiens, UniProt P30411)
# T2 construct: B2-receptor proteins in h-TM, h-CM and h-NPE cells; endogenous in cells; host or cells: human trabecular meshwork (h-TM), human ciliary muscle (h-CM) and human non-pigmented ciliary epithelial (h-NPE) cells
# T2 sequence (P30411 1-391): T1 sequence (P30411 1-391)
# T3: B2-receptors in h-NPE cells (Homo sapiens, UniProt P30411)
# T3 construct: B2-receptor proteins in h-TM, h-CM and h-NPE cells; endogenous in cells; host or cells: human trabecular meshwork (h-TM), human ciliary muscle (h-CM) and human non-pigmented ciliary epithelial (h-NPE) cells
# T3 sequence (P30411 1-391): T1 sequence (P30411 1-391)
# T4: BK B2-Receptor in h-NPE cells (Homo sapiens, UniProt P30411)
# T4 construct: B2-receptor proteins in h-TM, h-CM and h-NPE cells; endogenous in cells; host or cells: human trabecular meshwork (h-TM), human ciliary muscle (h-CM) and human non-pigmented ciliary epithelial (h-NPE) cells
# T4 sequence (P30411 1-391): T1 sequence (P30411 1-391)
# T5: human bradykinin B2-receptor (human, UniProt P30411 1-391)
# T5 sequence (looked up): T1 sequence (P30411 1-391)
# Assays:
# [1] = test system: Human trabecular meshwork (TM) cells; assay: PGE2 production (RIA) in human trabecular meshwork cells; assay type: cell-based; conditions: 1 h at 37° C., BK 100 nM or 1 μM, fluprostenol 1 μM, non-peptide agonists 1 μM or 10 μM, FIG. 6
# Method: The ability of BK agonists to stimulate prostaglandin E2 (PGE2) production was examined as follows. Human trabecular meshwork (TM) cells were seeded in culture plates and allowed to reach confluence. […] Fluprostenol was used as a positive control. After this time the assay was terminated by placing the assay plates on ice and by the addition of 100 μL of a cell-lysis reagent supplied with the PGE2 radioimmunoassay (RIA) kit (Amersham Pharmacia Biotech, Arlington Heights, Ill.). All reagents and standards supplied in the RIA kit were prepared and the RIA performed according to the manufacturer's instructions. Assay buffer, diluted prostaglandin E2 (PGE2) standard and supernatant from the cell-based experiment (diluted 1:100 v/v) were then pipetted into appropriate tubes as specified in the kit instructions. […]
# After this incubation, all tubes were placed in an ice-bath and 1 ml cold precipitating reagent supplied in the kit was added to the tubes, the content mixed and incubated for 25 min at 4° C. […] The supernatants of all tubes were decanted as specified in the kit instructions and the RIA samples analyzed on a gamma-counter. The levels of PGE2 generated by the test agent were then quantified in comparison with the PGE2-standard curve. Dose-response data for the test agent were constructed and the potency and intrinsic activity determined as described above for other assays.
# [2] = biological target: T1, B2-receptors in h-TM cells; assay: [Ca2+]i mobilization (FLIPR) in h-TM cells, agonist mode; assay type: cell-based; conditions: for Emax: HTM, read-out: Intrinsic Activity (Emax, % max relative to BK)
# Method: (§1) On the day of the experiment, one vial of FLIPR Calcium Assay Kit dye is re-suspended in 50 mL of a FLIPR buffer consisting of Hank's Balanced Salt Solution (HBSS), 20 mM HEPES, and 2.5 mM probenecid, pH 7.4. Cells are loaded with the calcium-sensitive dye by addition of an equal volume (50 μL) to each well of the 96-well plate and incubated with dye for 1 h at 23° C. After this time, the test compound plate and cell plate are placed in the FLIPR instrument. At the beginning of an experimental run, a signal test is performed to check the basal fluorescence signal from the dye-loaded cells and the uniformity of the signal across the plate. The basal fluorescence is adjusted between 8000-12000 counts by modifying the exposure time, the camera F-stop, or the laser power. Instrument settings for a typical assay are the following: laser power 0.3-0.6 W, camera F-stop F/2, and exposure time 0.4 sec.
# (§2) Fluorescence data are collected in real-time at 1.0 sec intervals for the first 60 secs and at 6.0 sec intervals for an additional 120 secs. […] The data are then analyzed using an automated, iterative, sigmoidal curve-fitting computer program to obtain the potency and intrinsic activities of the test agents as previously described (Sharif et al. J. Pharmacol. Exp. Ther. 286: 1094-1102, 1998; Sharif et al. Invest. Ophthalmol. Vis. Sci. 39:2562-2571, 1998; Kelly et al. J. Pharmacol. Exp. Ther. 304: 238-245, 2003). The sources of materials and reagents for such assays can be found in the references cited above.
# [3] = biological target: T2, B2-receptors in h-CM cells; assay: [Ca2+]i mobilization (FLIPR) in h-CM cells, agonist mode; assay type: cell-based; conditions: read-out: Intrinsic Activity (Emax, % max relative to BK)
# Method: as §1, §2
# [4] = biological target: T3, B2-receptors in h-NPE cells; assay: [Ca2+]i mobilization (FLIPR) in h-NPE cells, agonist mode; assay type: cell-based; conditions: for Emax: read-out: Intrinsic Activity (Emax, % max relative to BK)
# Method: as §1, §2
# [5] = test system: conscious ocular hypertensive cynomolgus monkey eyes; assay: IOP response in lasered (hypertensive) eyes of conscious cynomolgus monkeys, topical ocular; assay type: in vivo; conditions: for modulation of IOP: 300 μg topically administered; for % Change in IOP: Table 10, 300 μg topical ocular
# Method: Intraocular pressure (IOP) is determined with an Alcon Pneumatonometer (Alcon Laboratories, Inc., Fort Worth, Tex.) after light corneal anesthesia with 0.1% proparacaine. Right eyes are hypertensive as a result of laser trabeculoplasty. After a baseline IOP measurement, test compound is instilled in the right eyes only of 8-10 cynomolgus monkeys. Vehicle is instilled in the right eyes of 5-6 additional animals. Subsequent IOP measurements are taken at 1, 3, and 6 hours. IOP measurements are also taken on left eyes (normotensive and untreated) at each of these time points. The percent change in IOP from baseline is determined for each animal for every IOP measurement (Sharif et al. J. Ocular Pharmacol. Ther. 17: 305-317, 2001; May et al., J Pharmacol Exp Ther. 306: 301-309, 2003; Sharif et al. Invest. Ophthalmol. Vis. Res. 47: 4001-4010, 2006). Group mean and standard error of the mean (SEM) are calculated for each time point. […] In cases where the compound of invention has poor ocular bioavailability, the compound may need to be administered intracamerally or intravitreally in order to observe the IOP-lowering efficacy.
# The IOP-lowering effect was slow to develop but significant IOP reduction was observed even 3 hours post-dosing with maximum ocular hypotension observed 16-48 hours post-dosing (Tables 6-8; FIGS. 3b-5).
# [6] = biological target: T4, BK B2-Receptor in h-NPE cells; assay: Antagonism of FR-190997-induced [Ca2+]i mobilization in h-NPE cells; assay type: cell-based; conditions: FR-190997 as the agonist, read-out: Antagonist Potency (Ki)
# Method: as §1, §2
# [7] = biological target: human bradykinin B2-receptor (human) (UniProt P30411); assay: cell-based or functional assay
# [8] = biological target: T5, human bradykinin B2-receptor; assay: cell-based or functional assay
molecule,measurement,setting,value
"O=C(O)CCC/C=C\C[C@@H]1[C@@H](/C=C/[C@@H](O)COc2cccc(C(F)(F)F)c2)[C@H](O)C[C@@H]1O (racemic) [fluprostenol, reference compound]",production of endogenous prostaglandins (PGE2),[1],stimulate the production of endogenous prostaglandins
N=C(N)NCCC[C@H](N)C(=O)N1CCC[C@H]1C(=O)N1CCC[C@H]1C(=O)NCC(=O)N[C@@H](Cc1ccccc1)C(=O)N[C@@H](CO)C(=O)N1CCC[C@H]1C(=O)N[C@@H](Cc1ccccc1)C(=O)O [Des-Arg^9-BK],Emax,"[2]; h-TM cells, mean ± SEM",112%
same,Emax,"[3]; h-CM cells, mean ± SEM",94%
same,Emax,"[4]; h-NPE cells, mean ± SEM",70%
"CNC(=O)c1ccc(/C=C/C(=O)NCC(=O)N(C)c2ccc(Cl)c(COc3cccc4ccc(C)nc34)c2Cl)cc1 [FR-165649, reference compound]",modulation of IOP,[5],failed to modulate IOP
same,% Change in IOP,[5]; Dose 1/1 hr,1.0 ± 3.1%
same,% Change in IOP,[5]; Dose 1/3 hr,0.7 ± 3.5%
same,% Change in IOP,[5]; Dose 1/6 hr,−6.2 ± 4.7%
same,% Change in IOP,[5]; Dose 1/24 hr,−4.0 ± 3.2%
same,Ki,[6],146 nM
"N=C(N)NCCC[C@H](NC(=O)[C@H](Cc1ccccc1)NC(=O)[C@@H]1CCCN1C(=O)[C@H](CO)NC(=O)[C@H](Cc1ccccc1)NC(=O)CNC(=O)[C@@H]1C[C@@H](O)CN1C(=O)[C@@H]1CCCN1C(=O)[C@@H](N)CCCNC(=N)N)C(=O)O [Hyp^3-BK, Arg-Pro-Hyp-Gly-Phe-Ser-Pro-Phe-Arg]",EC50,[2],0.9 ± 0.3 nM
same,Emax,[2],110%
same,Emax,[3],105%
same,EC50,[4],6 ± 0.6 nM
same,Emax,[4],93%
N=C(N)NCCC[C@H](NC(=O)[C@H](Cc1ccccc1)NC(=O)[C@@H]1CCCN1C(=O)[C@H](CO)NC(=O)[C@H](Cc1ccccc1)NC(=O)CNC(=O)[C@@H]1CCCN1C(=O)[C@@H]1CCCN1C(=O)[C@H](CCCNC(=N)N)NC(=O)[C@@H](N)CCCCN)C(=O)O [Lys-BK],Emax,"[2]; h-TM cells, mean ± SEM",115%
same,Emax,"[3]; h-CM cells, mean ± SEM",115%
same,Emax,"[4]; h-NPE cells, mean ± SEM",90%
CSCC[C@H](N)C(=O)N[C@@H](CCCCN)C(=O)N[C@@H](CCCNC(=N)N)C(=O)N1CCC[C@H]1C(=O)N1CCC[C@H]1C(=O)NCC(=O)N[C@@H](Cc1ccccc1)C(=O)N[C@@H](CO)C(=O)N1CCC[C@H]1C(=O)N[C@@H](Cc1ccccc1)C(=O)N[C@@H](CCCNC(=N)N)C(=O)O [Met-Lys-BK],Emax,"[2]; h-TM cells, mean ± SEM",111%
same,Emax,"[3]; h-CM cells, mean ± SEM",110%
same,Emax,"[4]; h-NPE cells, mean ± SEM",77%
"CCCC[P+](CCCC)(CCCC)Cc1ccc(NC(=O)[C@H](Cc2ccc3ccccc3c2)NC(=NC2CCCCC2)NC2CCCCC2)cc1.[Cl-] [WIN-64338, reference compound]",modulation of IOP,[5],failed to modulate IOP
same,% Change in IOP,[5]; Dose 1/1 hr,1.7 ± 1.6%
same,% Change in IOP,[5]; Dose 1/3 hr,−10.4 ± 2.8%
same,% Change in IOP,[5]; Dose 1/6 hr,1.3 ± 1.3%
Des-Arg^9-BK (Arg-Pro-Pro-Gly-Phe-Ser-Pro-Phe) (peptide),"[Ca2+]i mobilization in h-CM cells: Intrinsic Activity (Emax, % max relative to BK)",[7],94%
same,[Ca2+]i mobilization in h-CM cells: Potency (EC50; nM),[7],4260 nM
same,"[Ca2+]i mobilization in h-NPE cells: Intrinsic Activity (Emax, % max relative to BK)",[7],70%
same,[Ca2+]i mobilization in h-NPE cells: Potency (EC50; nM),[7],16000 nM
same,"[Ca2+]i mobilization in h-TM cells: Intrinsic Activity (Emax, % max relative to BK)",[7],112%
same,[Ca2+]i mobilization in h-TM cells: Potency (EC50; nM),[7],2570 nM
H-RPPGFSPFR-OH [BK],Emax,[2],110%
same,Emax,[3],104%
same,Emax,[4],98%
Hyp^3-BK (Arg-Pro-Hyp-Gly-Phe-Ser-Pro-Phe-Arg) (peptide),"[Ca2+]i mobilization in h-CM cells: Intrinsic Activity (Emax, % max relative to BK)",[7],105%
same,"[Ca2+]i mobilization in h-NPE cells: Intrinsic Activity (Emax, % max relative to BK)",[7],93%
same,[Ca2+]i mobilization in h-NPE cells: Potency (EC50; nM),[7],6 nM
same,"[Ca2+]i mobilization in h-TM cells: Intrinsic Activity (Emax, % max relative to BK)",[7],110%
same,[Ca2+]i mobilization in h-TM cells: Potency (EC50; nM),[7],0.9 nM
MKRPPGFSPFR [Met-Lys-BK (Met-Lys-Arg-Pro-Pro-Gly-Phe-Ser-Pro-Phe-Arg)],"[Ca2+]i mobilization in h-CM cells: Intrinsic Activity (Emax, % max relative to BK)",[8],110%
same,[Ca2+]i mobilization in h-CM cells: Potency (EC50; nM),[8],16.1 nM
same,"[Ca2+]i mobilization in h-NPE cells: Intrinsic Activity (Emax, % max relative to BK)",[8],77%
same,[Ca2+]i mobilization in h-NPE cells: Potency (EC50; nM),[8],125 nM
same,"[Ca2+]i mobilization in h-TM cells: Intrinsic Activity (Emax, % max relative to BK)",[8],111%
same,[Ca2+]i mobilization in h-TM cells: Potency (EC50; nM),[8],6.5 nM
KRPPGFSPFR [Lys-BK (Lys-Arg-Pro-Pro-Gly-Phe-Ser-Pro-Phe-Arg)],"[Ca2+]i mobilization in h-CM cells: Intrinsic Activity (Emax, % max relative to BK)",[8],115%
same,[Ca2+]i mobilization in h-CM cells: Potency (EC50; nM),[8],3.2 nM
same,"[Ca2+]i mobilization in h-NPE cells: Intrinsic Activity (Emax, % max relative to BK)",[8],90%
same,[Ca2+]i mobilization in h-NPE cells: Potency (EC50; nM),[8],19.6 nM
same,"[Ca2+]i mobilization in h-TM cells: Intrinsic Activity (Emax, % max relative to BK)",[8],115%
same,[Ca2+]i mobilization in h-TM cells: Potency (EC50; nM),[8],1.9 nM
